Article PMC10817945, “Design of a novel analogue peptide with potent antibiofilm activities against Staphylococcus aureus based upon a sapecin B-derived peptide” (Scientific Reports, 2024)
Converted amounts (≈) assume the structure as drawn. Read-outs that look alike come from different tables or passages of the source. Non-standard residues stand in square brackets, D forms with d. Residues, ends and D or L forms follow the SMILES beside them.

Assays:
[1] = system: one MRSA and reference strain (ATCC25923); test: Time-kill kinetics assay
Description: The peptide-free control was included for each strain. Following incubation at 37 °C for 0, 0.25, 0.5, 1, 2, 4, 5, and 24 h, each sample was serially diluted, plated onto Mueller–Hinton (MH) agar (Merck, Germany) plates and incubated at 37 °C. The viable plate count method was performed after incubation for 24 h and the counts were expressed as Log CFU/ml[44].

[2] = system: S. aureus ATCC25923 and MRSA-1 strains; test: Catheter-associated biofilm infection mouse model; format: in vivo, Staphylococcus aureus; conditions: Balb/c mice, 5 days; for reduction of biofilm formation on catheters (crystal-violet assay): ATCC 25923; for reduction of biofilm on catheters (crystal-violet assay): MRSA
Description: All animal experiments were performed in accordance with the protocols approved by the Animal Ethics Committee of Ahvaz Jundishapur University of Medical Sciences (Application No. IR.AJUMS.ABHC.REC.1400.014). Female Balb/c mice (Laboratory Animal Reproduction and Maintenance Center Ahvaz Jundishapur University Ahvaz, Iran) were housed one mouse per cage, under sanitary conditions at 22–25 °C and at 12 h light/dark cycles, with access to sanitized pellet food and water. Prior to each experiment, mice were acclimated to room conditions for 1 week. To increase the experimental accuracy, the cages were disinfected with a povidone-iodine solution of 10%, and the bedding materials were autoclaved, and replaced every day.
In this study, eight groups (five mice per group) of 12-week-old female Balb/c mice were obtained from the Pasture Institute of Iran (Tehran, Iran). Three groups were used to investigate the effect of three concentrations of mKLK against ATCC25923 strain, three groups for three concentrations of mKLK against MRSA, and two groups for control). Mice were anesthetized by injection of ketamine 10% and xylazine 2% (in a ratio of 3 to 1). To create a subcutaneous pocket to place three 1-cm-long polyurethane catheters, a small incision was made. Three catheters were subcutaneously implanted on the lower back of mice. Following implantation of the catheters, injection of bacterial suspension and then mKLK peptide was performed into the subcutaneous pocket. […] In addition, PBS was injected alone into animals as a control group without contamination to evaluate the sterility of the surgical procedure. The incision was closed with Vetbond. Tissue adhesive (Kimiatajhiz teb, Iran) and cleansed with 10% PI solution. After 5 days, all mice were euthanized with CO2, and the catheters were removed. Subsequently, catheter-associated biofilms were evaluated using the CFU counting method, crystal violet assay, and SEM.
The biofilm mass attached to the catheter surface was measured using a colorimetric assay (crystal violet). After removing the catheters from the mouse skin and double washing with PBS, each catheter was placed in wells of a 24-well microtiter plate, and absolute methanol was added to fix the biofilm to the catheter surface. Then, the methanol was discarded and the catheters were dried at room temperature. After staining with crystal violet 0.1% for 5 min at room temperature, the dye was discarded and the catheters were washed with PBS. Then, 33% acetic acid was added to each well to release the absorbed dye. […] To enumerate biofilm cells, catheters were removed, transferred to sterile tubes, vortexed, and sonicated. Bacterial numbers were determined by serial diluting and plating on TSA[56].

S. aureus strains = test: Inhibition of bacterial surface attachment (crystal violet); format: cell-based, Staphylococcus aureus
Description: To investigate the inhibitory effect of KLK and mKLK peptides on bacterial surface attachment and biofilm formation, the bacterial suspension in TSB with a concentration of 10^7 CFU/ml was prepared from overnight culture. An aliquot of 100 μl of the bacterial suspension was added to wells of 96-well plates containing 100 μl of the peptides solution with concentrations of 1×, 1/2× and 1/4× MIC, resulting in the final peptides concentrations of 1/2×, 1/4× and 1/8× MIC. To investigate the inhibitory effect of the peptides on surface attachment the incubation was performed at 37 °C for 2 h and to evaluate their inhibitory activity on biofilm formation the incubation was performed at 37 °C for 24 h. The wells containing only TSB medium were used as negative controls. After incubation, the contents of the wells were removed and washed three times with PBS and the wells were stained with 200 μl of 0.1% crystal violet for 20 min. The plates were washed again and excess dye was removed. A volume of 200 μl of 95% ethanol was added to each well for 20 min and absorbance was measured at 570 nm by a microplate reader.

S. aureus = test: Effect of 1/2× MIC on bacterial growth; format: cell-based, Staphylococcus aureus
Text: To ensure that the antibiofilm property of mKLK is independent of its ability to inhibit bacterial growth, the effect of 1/2× MIC on bacterial growth was examined.

[3] = 50% human serum, 37 °C, 2 h, reverse-phase HPLC
Description: To assess the serum stability of mKLK peptide to proteolytic degradation, the D-form mKLK peptide (0.5 mg) was dissolved in 4 ml of 50% (v/v) of serum from male healthy donors in PBS and incubated at 37 °C for 0, 60, and 120 min. After each incubation time, the samples were analyzed by reverse-phase HPLC on a Jupiter proteo C18 column (250 × 4.6 mm) and monitored with a fluorescence detector (wavelength: 560 nm). Analysis of the samples was performed over a linear gradient of 10–60% acetonitrile containing 0.08% trifluoroacetic acid for 50 min at a flow rate of 1 ml/min[48].

S. aureus isolates = format: cell-based, Staphylococcus aureus
Description: Minimum inhibitory concentrations (MIC) of KLK, mKLK, and vancomycin were determined using microdilution broth assay according to clinical and laboratory standards institute (CLSI) guidelines with some modifications. Briefly, overnight cultures were diluted in Muller-Hinton broth (MHB; Merck, Germany) to achieve a final density of 5 × 10^5 CFU/ml. A volume of 100 μl of bacterial suspension was added to wells of sterile 96-well plates containing 100 μl of two-fold peptide dilutions, ranging from 0.25 to 256 µg/ml. Vancomycin was used as a positive control in this assay. […] MBC was determined by removing samples from wells with no visible growth, serially diluting, and plating on Mueller Hinton (MH) agar plates for CFU counting.

[4] = system: clinical Salmonella isolates; parameters: method as in PMID 34361810; conditions: cited from earlier work
in vitro = conditions: human
Description: To quantitatively investigate the cytotoxicity of mKLK and KLK peptides, the 2,3-bis-(2-methoxy-4-nitro-5-sulfophenyl)-2H-tetrazolium-5-carboxanilide (XTT) (cell proliferation kit II, Roche, Germany) assay was performed on human embryonic kidney (HEK)-293 cell line, as described previously[47], The HEK-293 cells were grown in DMEM supplemented with 4 µM glutamine, 10% fetal bovine serum (FBS), and 100 units/ml penicillin/streptomycin at 37 °C in a 5% CO2 and 95% air atmosphere. Following incubation for 24 h, the culture medium was discarded and fresh medium containing different concentrations of KLK and mKLK peptides (1.56, 3.12, 6.25, 12.5, and 25 µM) was added and incubated at 37 °C for 20 min. Then, the culture medium was discarded and 100 µl of XTT reagent mixture was added and incubated for 4 h. Finally, the absorbance was measured at 570 nm using an ELISA plate reader (Anthos 2020, England). The percentage of cell inhibition was calculated using the following formula: % Cell inhibition = Test Abs/Control Abs × 100.

[5] = MRSA, 1 × MIC (8 μg/ml), within 2 h
[6] = ATCC25923, 1/4MIC, control 2.136±0.01
[7] = ATCC25923, 1/8MIC, control 2.136±0.01
[8] = MRSA-1, 1/2MIC, control 1.861±0.02
[9] = MRSA-1, 1/4MIC, control 1.861±0.02
[10] = MRSA-1, 1/8MIC, control 1.861±0.02
[11] = MRSA-2, 1/2MIC, control 2.311±0.005
[12] = MRSA-2, 1/4MIC, control 2.311±0.005
[13] = MRSA-2, 1/8MIC, control 2.311±0.005
[14] = MRSA-3, 1/2MIC, control 1.491±0.06
[15] = MRSA-3, 1/4MIC, control 1.491±0.06
[16] = MRSA-3, 1/8MIC, control 1.491±0.06
[17] = MSSA-1, 1/2MIC, control 2.107±0.08
[18] = MSSA-1, 1/4MIC, control 2.107±0.08
[19] = MSSA-1, 1/8MIC, control 2.107±0.08
[20] = MSSA-2, 1/2MIC, control 2.061±0.01
[21] = MSSA-2, 1/8MIC, control 2.061±0.01

## CC(C)C[C@@H](NC(=O)[C@H](N)Cc1c[nH]c2ccccc12)C(=O)N[C@H](Cc1c[nH]c2ccccc12)C(=O)N[C@H](C)C(=O)N[C@H](CC(C)C)C(=O)N[C@H](CC(C)C)C(=O)N[C@H](CCCCN)C(=O)N[C@H](CC(C)C)C(=O)N[C@H](CC(C)C)C(=O)N[C@H](CCCCN)C(=O)N[C@H](CC(C)C)C(=O)N[C@H](CCCCN)C(N)=O [mKLK] (H-[dW][dL][dW][dA][dL][dL][dK][dL][dL][dK][dL][dK]-NH2; N-terminus assumed)
[1]; ATCC 25923, 1 × MIC (4 μg/ml)
  time after which no regrowth was observed: 30 min
[1]; ATCC 25923, 1 × MIC, during 15 min
  reduction in viable cell count: ~1 log
[1]; ATCC 25923, 2 × MIC (8 μg/ml)
  time after which no regrowth was observed: 15 min
[1]; MRSA, 1 × MIC
  time after which no regrowth was observed: 240 min
[1]; [5]
  reduction in viable cell count: 2 log
[2]; 1/2× MIC
  reduction of biofilm formation on catheters (crystal-violet assay): 62%
  reduction of biofilm on catheters (crystal-violet assay): 58%
[2]; 1/4×MIC
  reduction of biofilm formation on catheters (crystal-violet assay): 36%
[2]; 1 × MIC
  reduction of biofilm formation on catheters (crystal-violet assay): 72%
[2]; 1/4× MIC
  reduction of biofilm on catheters (crystal-violet assay): 27%
[2]; 1× MIC
  reduction of biofilm on catheters (crystal-violet assay): 73%
S. aureus strains; [6]
  crystal violet absorbance at 570 nm, bacterial attachment, Mean±SD: 1.789±0.01
S. aureus strains; [7]
  crystal violet absorbance at 570 nm, bacterial attachment, Mean±SD: 1.952±0.07
S. aureus strains; [8]
  crystal violet absorbance at 570 nm, bacterial attachment, Mean±SD: 1.361±0.03
S. aureus strains; [9]
  crystal violet absorbance at 570 nm, bacterial attachment, Mean±SD: 1.599±0.08
S. aureus strains; [10]
  crystal violet absorbance at 570 nm, bacterial attachment, Mean±SD: 1.723±0.02
S. aureus strains; [11]
  crystal violet absorbance at 570 nm, bacterial attachment, Mean±SD: 1.496±0.01
S. aureus strains; [12]
  crystal violet absorbance at 570 nm, bacterial attachment, Mean±SD: 1.811±0.19
S. aureus strains; [13]
  crystal violet absorbance at 570 nm, bacterial attachment, Mean±SD: 1.906±0.13
S. aureus strains; [14]
  crystal violet absorbance at 570 nm, bacterial attachment, Mean±SD: 0.944±0.07
S. aureus strains; [15]
  crystal violet absorbance at 570 nm, bacterial attachment, Mean±SD: 1.078±0.07
S. aureus strains; [16]
  crystal violet absorbance at 570 nm, bacterial attachment, Mean±SD: 1.119±0.12
S. aureus strains; [17]
  crystal violet absorbance at 570 nm, bacterial attachment, Mean±SD: 1.229±0.07
S. aureus strains; [18]
  crystal violet absorbance at 570 nm, bacterial attachment, Mean±SD: 1.419±0.01
S. aureus strains; [19]
  crystal violet absorbance at 570 nm, bacterial attachment, Mean±SD: 1.592±0.36
S. aureus strains; [20]
  crystal violet absorbance at 570 nm, bacterial attachment, Mean±SD: 1.199±0.09
S. aureus strains; [21]
  crystal violet absorbance at 570 nm, bacterial attachment, Mean±SD: 1.576±0.46
S. aureus
  effect on bacterial growth: did not affect the bacterial growth
[3]
  percentage of the peptide remaining: 79%
S. aureus isolates; ATCC25923
  MBC: 4 µg/mL (≈ 2.62 µM)
S. aureus isolates; MRSA-1
  MBC: 8 µg/mL (≈ 5.25 µM)
S. aureus isolates; MRSA-2
  MBC: 8 µg/mL (≈ 5.25 µM)
S. aureus isolates; MRSA-3
  MBC: 8 µg/mL (≈ 5.25 µM)
S. aureus isolates; MSSA-1
  MBC: 4 µg/mL (≈ 2.62 µM)
S. aureus isolates; MSSA-2
  MBC: 4 µg/mL (≈ 2.62 µM)

## CC(C)C[C@@H](NC(=O)[C@H](N)CCCCN)C(=O)N[C@H](CCCCN)C(=O)N[C@H](CC(C)C)C(=O)N[C@H](CC(C)C)C(=O)N[C@H](CC(C)C)C(=O)N[C@H](CC(C)C)C(=O)N[C@H](CC(C)C)C(=O)N[C@H](CCCCN)C(=O)N[C@H](CC(C)C)C(=O)N[C@H](CCCCN)C(N)=O [KLK] (H-[dK][dL][dK][dL][dL][dL][dL][dL][dK][dL][dK]-NH2; N-terminus assumed)
[1]; ATCC 25923, 1 × MIC (4 μg/ml)
  time after which no regrowth was observed: 30 min
[1]; ATCC 25923, 2 × MIC (8 μg/ml)
  time after which no regrowth was observed: 15 min
[1]; MRSA, 1 × MIC
  time after which no regrowth was observed: 300 min
[1]; [5]
  reduction in viable cell count: ~ 1 log
[4]
  MIC: > 256 µM
S. aureus strains; ATCC25923, 1/2MIC, control 2.136±0.01
  crystal violet absorbance at 570 nm, bacterial attachment, Mean±SD: 1.904±0.08
S. aureus strains; [6]
  crystal violet absorbance at 570 nm, bacterial attachment, Mean±SD: 1.965±0.03
S. aureus strains; [7]
  crystal violet absorbance at 570 nm, bacterial attachment, Mean±SD: 2.03±0.07
S. aureus strains; [8]
  crystal violet absorbance at 570 nm, bacterial attachment, Mean±SD: 1.508±0.03
S. aureus strains; [9]
  crystal violet absorbance at 570 nm, bacterial attachment, Mean±SD: 1.712±0.01
S. aureus strains; [10]
  crystal violet absorbance at 570 nm, bacterial attachment, Mean±SD: 1.8±0.17
S. aureus strains; [11]
  crystal violet absorbance at 570 nm, bacterial attachment, Mean±SD: 2.082±2.02
S. aureus strains; [12]
  crystal violet absorbance at 570 nm, bacterial attachment, Mean±SD: 2.146±0.008
S. aureus strains; [13]
  crystal violet absorbance at 570 nm, bacterial attachment, Mean±SD: 2.198±0.04
S. aureus strains; [14]
  crystal violet absorbance at 570 nm, bacterial attachment, Mean±SD: 1.031±0.07
S. aureus strains; [15]
  crystal violet absorbance at 570 nm, bacterial attachment, Mean±SD: 1.369±0.01
S. aureus strains; [16]
  crystal violet absorbance at 570 nm, bacterial attachment, Mean±SD: 1.428±0.06
S. aureus strains; [17]
  crystal violet absorbance at 570 nm, bacterial attachment, Mean±SD: 1.89±0.002
S. aureus strains; [18]
  crystal violet absorbance at 570 nm, bacterial attachment, Mean±SD: 1.925±0.06
S. aureus strains; [19]
  crystal violet absorbance at 570 nm, bacterial attachment, Mean±SD: 2.006±0.01
S. aureus strains; [20]
  crystal violet absorbance at 570 nm, bacterial attachment, Mean±SD: 1.804±0.03
S. aureus strains; [21]
  crystal violet absorbance at 570 nm, bacterial attachment, Mean±SD: 1.958±0.07
S. aureus isolates; ATCC25923
  MBC: 4 µg/mL (≈ 3.03 µM)
S. aureus isolates; MRSA-1
  MBC: 8 µg/mL (≈ 6.05 µM)
S. aureus isolates; MRSA-2
  MBC: 8 µg/mL (≈ 6.05 µM)
S. aureus isolates; MRSA-3
  MBC: 8 µg/mL (≈ 6.05 µM)
S. aureus isolates; MSSA-1
  MBC: 4 µg/mL (≈ 3.03 µM)
S. aureus isolates; MSSA-2
  MBC: 4 µg/mL (≈ 3.03 µM)
In vitro
  IC50 at 20 min: 28.8 µM
